Assay results published in patent US10398751B2, “Pharmaceutical compositions of water soluble peptides with poor solubility in isotonic conditions and methods for their use” (STRONGBRIDGE IRELAND LIMITED, priority 2016, dated 2019).
Where two headings read alike, the source gives them in different places.

Legend:
[1] = Comparative surface tension of peptides in water for injection; type: physicochemical; details: 10 mg/ml in WFI; for Effect of reduced surface tension (%): baseline WFI; for Water surface tension (dyne/cm): baseline WFI 52
[2] = cited from earlier work
[3] = Emulsification of cottonseed oil and water for injection; type: physicochemical; details: 16.6 weight % cottonseed oil, 74.2 weight % WFI, 9.2 weight % peptide, room temperature
Method: Based on its amphiphilic properties, veldoreotide acetate was evaluated by means of emulsion formulation. […] Thus, veldoreotide acetate may be considered a w/o ionic surfactant or hydrotrope with a hydrophilic lipophilic balance (HLB) of 6.
The samples were mixed using 25G syringe and vortexed at room temperature.
Veldoreotide was formulated as a water in oil emulsion using 80% (wt %) cottonseed oil, 20% (wt %) water for injection (WFI) and 1% (wt %) veldoreotide acetate. Specifically, 10 mg of veldoreotide acetate was dissolved in 200 uL WFI in a 5 mL glass vial, 800 mg of cottonseed oil was added and the resulting mixture was stirred under magnetic stirring at room temperature for 15 minutes at 1000 rpm. The emulsion was then viewed under the light microscope and stored under refrigeration. The resulting emulsion was stable and found to be injectable via 27G needle.

[4] = Density, pH and surface tension of solutions (capillary method); type: physicochemical
Method: Tween 80 was used as a control surfactant for comparison. Densities were measured on 1 mL fixed volume samples. […] The effect of veldoreotide acetate on the pH of double distilled water (DDW) was the same at all veldoreotide acetate concentrations. The pH of DDW of 5.0 was reduced to pH 4.5. The effect of veldoreotide acetate on the density of DDW (starting density of DDW was 1.003 g/ml) was concentration dependent from 1.4 mg/ml to 21.5 mg/ml with density ranging from 0.986 to 0.998 g/ml respectively. However, at veldoreotide acetate concentrations of 45 and 102 mg/ml the density was increased above the starting density of DDW. […] The effect of veldoreotide acetate on the surface tension of DDW (starting surface tension was 64.9 dyne/cm) was consistent with veldoreotide acetate behaving as a peptide amphiphile (surfactant). The surface tension of DDW was reduced by veldoreotide acetate at maximum from 64.9 to 45 dyne/cm. In order to elucidate the meaning of this effect, Tween 80 was used as a reference surfactant. Other surfactants include Polexamer 188. The reduction of surface tension induced by Tween 80 was in the range of 40% (from 64.9 dyne/cm to about 39 dyne/cm), in comparison to veldoreotide acetate of 30% (from 64.9 dyne/cm to about 45 dyne/cm). Note that, under these experimental conditions; the effect of Tween 80 indicated a concentration-effect relationship. Whereas, the effect of veldoreotide acetate on the reduction of surface tension was at the same range for all concentrations tested.
The data of table 4 show the surface activity of highly concentrated COR005 acetate (200 mg/ml), with or without additives in WFI, which emulates the preparation conditions of the primary emulsion of the microspheres. The results of Test 1 and 2 (Table 4) show the effect of COR005 acetate on the surface tension of water. When COR005 acetate is dissolved in water the surface tension is reduced by about 36%, from 68.5 dyne/cm for the water alone to 44 dyne/cm for the solution of water with CR005 acetate at 200 mg/ml.

Compound | Effect of reduced surface tension (%) [1] [%] | Water surface tension (dyne/cm) [1] [dyne/cm] | surface area ([2]; microspheres prepared from PLGA and octreotide acetate with 0 glucose (Biomaterials, 2004, 25, 1919-1927)) [m^2/g] | surface area ([2]; microspheres prepared from PLGA and octreotide acetate with 0.2% of glucose (Biomaterials, 2004)) [m^2/g] | surface area ([2]; microspheres prepared from PLGA and octreotide acetate with 1% of glucose (Biomaterials, 2004)) [m^2/g] | emulsification [3] | % change in surface tension compared to baseline ([4]; 7 mg/ml in DDW, 25° C.) [%] | Density (g/ml) Weighted 1 ml ([4]; 7 mg/ml in DDW, 25° C.) [g/mL] | Surface tension (dyne/cm) capillary method ([4]; 7 mg/ml in DDW, 25° C.) [dyne/cm] | % change in surface tension compared to baseline ([4]; 14 mg/ml in DDW, 25° C.) [%] | Density (g/ml) Weighted 1 ml ([4]; 14 mg/ml in DDW, 25° C.) [g/mL] | Surface tension (dyne/cm) capillary method ([4]; 14 mg/ml in DDW, 25° C.) [dyne/cm] | % change in surface tension compared to baseline ([4]; 28 mg/ml in DDW, 25° C.) [%] | Density (g/ml) Weighted 1 ml ([4]; 28 mg/ml in DDW, 25° C.) [g/mL] | Surface tension (dyne/cm) capillary method ([4]; 28 mg/ml in DDW, 25° C.) [dyne/cm] | surface tension of DDW solution ([4]; DDW pH 5.0, 25° C., baseline 64.9 dyne/cm (text summary, concentration not specified)) | reduction of surface tension of water ([4]; DDW, 25° C., baseline 64.9 dyne/cm) [%]
C[C@@H](O)[C@@H]1NC(=O)[C@H](CCCCN)NC(=O)[C@@H](Cc2c[nH]c3ccccc23)NC(=O)[C@H](Cc2ccccc2)NC(=O)[C@@H](NC(=O)[C@H](N)Cc2ccccc2)CSSC[C@@H](C(=O)N[C@H](CO)[C@@H](C)O)NC1=O [Octreotide] | −27 | 38 | 4.4 | 4.7 | 4.9 | weak emulsification efficiency |  |  |  |  |  |  |  |  |  |  | 
CC(C)C[C@H](NC(=O)[C@@H](COC(C)(C)C)NC(=O)[C@H](Cc1ccc(O)cc1)NC(=O)[C@H](CO)NC(=O)[C@H](Cc1c[nH]c2ccccc12)NC(=O)[C@H](Cc1cnc[nH]1)NC(=O)[C@@H]1CCC(=O)N1)C(=O)N[C@@H](CCCNC(=N)N)C(=O)N1CCC[C@H]1C(=O)NNC(N)=O [Goserelin] | −37 | 33 |  |  |  | least potential for emulsion formation |  |  |  |  |  |  |  |  |  |  | 
CCCCCCCC/C=C\CCCCCCCC(=O)OCCOCC(OCCO)C1OCC(OCCO)C1OCCO (centres unmarked) [Tween 80, reference compound] |  |  |  |  |  |  | −39 | 0.9945 | 39.6 | −39 | 0.988 | 39.35 | −40 | 0.975 | 38.8 | about 39 dyne/cm | ~40
